Test results reported in US10034475B2, “Treated biodiesel glycerin” (Auburn University, priority 2007, dated 2018).

Assays:
[1] = test system: reniform nematode Rotylenchulus reniformis; test: Greenhouse pot test, soil drench, reniform nematode population in soil; assay type: in vivo; settings: 1 Kg infested soil per pot, drench in 100 mls; urea alone 150 mgs/Kg soil; NBG 1-5 mls/kg soil without urea
Experimental: The effect of neutralized bioglycerin (NBG), either in the presence or absence of organic nitrogen, was tested on the growth of cotton plants and parasitic nematodes. Neutralized bioglycerin (NBG) was applied at rates of 0, 1, 2, 3, 4, and 5 mls/kg soil either with or without urea (150 mgs/Kg soil of the compound to achieve about 70 mgs N/Kg soil). Applications were performed by drenching the soil in aqueous solution so that the final application volume per pot was 100 mls (which is equivalent to an acre inch of irrigation). Each pot contained 1 Kg of soil infested with the reniform nematode Rotylenchulus reniformis and there were 7 replications (pots)/treatment. Thus, for example, for the 1 ml NBG application there were 14 pots, 7 of which received each water up to 100 mls containing 1 ml NBG; the other 7 pots received each 1 ml NBG+150 mgs urea mixed in a final volume of 100 mls. The carbon:nitrogen ratios (C/N) of the combined treatments ranged from about 5.6 for the 1 ml NBG treatment to 28 for the 5 mls NBG treatment.

nematodes = settings: greenhouse and field experiments; cited from earlier work
fungi = settings: greenhouse and field experiments; cited from earlier work

**Q.** With NC(N)=O [Urea, urea] as the compound, how does the “effect on reniform nematode numbers” value [1] read?
**A.** suppressed

**Q.** For C=CC=O [acrolein, 2-propenal], which nematocidal activity (nematodes) is on record?
**A.** nematocidal

**Q.** What about the fungicidal activity (fungi) of the same compound?
**A.** fungicidal
